The test system of one data set is proteasome. The conditions noted are these: cited from earlier work. From the text: Most LRAs selected so far to relieve transcriptional blocks act on signaling pathways and histone acetylation but are not specific to HIV LTR promoters or targeted to the reservoirs, thus their effect should be considered globally on genes and cellular machineries of cell populations.

Data set [1] has as its system post-proteasomal aminopeptidases. Kind of data set: Aminopeptidase hydrolytic activity in live CD4 T cells (fluorogenic H-Leu-AMC). The data set is classed as cell-based, human. The conditions noted are these: live primary CD4 T cells of healthy donors, 48 h treatment, versus DMSO; Bryostatin 10 nM, Panobinostat 30 nM; 50 μM H-Leu-AMC, 37°C; n = 8. As for the experimental part:
(§1) Romidepsin, Bryostatin, Disulfiram (Sigma), Ingenol-3-angelate (Santa Cruz Biotechnologies), Panobinostat (Selleckchem) were dissolved in DMSO (Fisher Scientific) to make stock solutions. Fresh aliquots were used for each experiment. The final concentrations for each LRA in cell culture were as follows: Panobinostat (30 nM), Romidepsin (40 nM), Disulfiram (500 nM), Bryostatin (10 nM), Ingenol-3-angelate (50 nM). Maximum in vitro stimulation was achieved by addition of anti-CD3/CD28 magnetic beads (Fisher Scientific) at a ratio of 1:1 bead to T cell as in [37]. For combination treatment, both drugs were added at the same time.
The proteasome hydrolytic activities caspase-like (50 μM Z-LLE-AMC; EMD Millipore), tryptic (50 μM Boc-LRR-AMC; Bachem), chymotryptic (50 μM Suc-LLVY-AMC; Bachem), post-proteasomal aminopeptidases (50 μM H-Leu-AMC; Bachem) were measured in 25x10^3 live CD4 T cells at given time points after drug treatment with peptidase-specific fluorogenic substrates as in [37, 40]. […] The rate of fluorescence emission, which is proportional to the proteolytic activity, was measured every 600 s at 37°C in a Victor-3 Plate Reader (Perkin Elmer), as in [37].

In data set [2] the test system is CD4 T cell extracts (antigen processing machinery). Kind of data set: In vitro degradation of HIV-1 Gag p24-161-24m in extracts of LRA-treated CD4 T cells, mass spectrometry. The data set is classed as biochemical, human. As for the experimental part:
as §1
(§2) 2 nmol of pure peptide (MGH peptide core facility or Biosynthesis, Texas) was degraded with 15 ug of CD4 T cell extracts at 37°C in pH7.4 degradation buffer as in [37, 40]. Aliquots were taken at various time points and the reaction was stopped by addition of 5% (v/v) of Formic acid (Thermo Scientific) and the degradation products were purified by trichloroacetic acid (Sigma) precipitation (final concentration 5% (v/v)) and identified by in-house mass spectrometry as previously described. Briefly, equal amounts of the purified degradation products were injected into a NanoLC Ultra-HPLC (Eksigent) for salt removal and separation, then online nanosprayed into an LTQ Orbitrap Discovery mass spectrometer (Thermo) for identification. Peptides were separated in a NanoLC column (ChromXP C18, 3 um 120Å; Eksigent) over a gradient of 2–60% buffer B (buffer A: 0.1% (v/v) formic acid in MS-grade water (Fisher Scientific)); buffer B: 0.1% (v/v) formic acid in MS-grade acetonitrile (Fisher Scientific) in 95 min with a conserved flow rate of 250 nl/min. Mass spectra were recorded in the 370–2000 Daltons range. In the tandem mass spectrometry mode, the eight most intense peaks were selected with a window of 1 Dalton and fragmented using helium as collision gas and a voltage of 35 V. Peaks in the mass spectra were searched against the source peptide databases with Proteome Discoverer (version 1.3; Thermo) and quantitatively analyzed. For a given peptide, the integrated area under the peak is proportional to the relative abundance of the peptide in the sample. Each sample was run on the mass spectrometer at least twice.

Data set [3] shares this test system. Kind of data set: In vitro degradation of HIV-1 Gag p24-10-35m in extracts of LRA-treated CD4 T cells, mass spectrometry. The data set is classed as biochemical, human. The conditions noted are these: for HLA-B57 KF11 epitope production: LRA-treated extracts over matched DMSO, n = 6–10 donors. As for the experimental part:
as §1, §2

In data set [4] the test system is HIV-infected HLA-B57+ CD4 T cells. Kind of data set: Endogenous processing and presentation assay: CD107a degranulation of epitope-specific CD8 T cells and peptide equivalent. In kind it is cell-based, human. The conditions noted are these: for score of peptide presentation efficiency (peptide equivalent over HIV infection rate) at 24 hours / equivalent peptide presented (TW10, ISW9, KF11) at 24 hpi: 24 hpi; for score of peptide presentation efficiency (peptide equivalent over HIV infection rate) at 24 hours: all 3 epitopes; for equivalent peptide presented (TW10, ISW9, KF11) at 24 hpi: radar plots.

For data set [5] the following is noted: cited from earlier work. From the text:
We similarly assessed the processing of another HIV fragment, p24-161-24mer, after LRAs or aCD3/CD28 treatments (Fig 3A).

The test system of the next data set is primary CD4 T cells. Kind of data set: CD25 and CD69 surface activation markers by flow cytometry. In kind it is cell-based, human. The conditions noted are these: 6, 24 and 48 h post treatment. Here is the method:
as §1
Untreated or LRA-treated CD4 T cells were stained with CD4-BV605, CD3-Pacific Blue (BD Biosciences) and HLA-ABC-AlexaFluor700 (Biolegend) to assess purity (95–99%) and CD38-FITC, CD69-PE, CD25-PerCpCy5.5 and HLA-DR-APC (BD Biosciences) to measure surface activation marker levels. Cellular activation levels were calculated by first gating on the double negative population of CD25 and CD69 of the non-treated sample on live, CD4- and CD3-positive cells and applying the same gates to the LRA-treated and CD3/CD28-stimulated samples as done in [37]. A similar gating strategy was applied to determine the proportion of CD38- and HLA-DR-positive CD4 T cells.
A general note: In flow cytometry, cells or beads pass a laser one at a time.

Setting [6] is: over matched DMSO, n = 8–11 healthy donors.
Setting [7] is: extracts of CD4 T cells treated 48 h, 120-minute degradation, representative experiment.

Here are results for five compounds from publication PMC7112239, “Latency reversal agents modulate HIV antigen processing and presentation to CD8 T cells” (PLoS Pathogens, 2020).

Where no end group is shown, it is not given here.

With `CCC/C=C/C=C/C(=O)O[C@H]1/C(=C/C(=O)OC)C[C@H]2C[C@H]([C@@H](C)O)OC(=O)C[C@H](O)C[C@@H]3C[C@H](OC(C)=O)C(C)(C)[C@](O)(C[C@@H]4C/C(=C/C(=O)OC)C[C@H](/C=C/C(C)(C)[C@]1(O)O2)O4)O3` [Bryostatin], the “proteasome activities in fibroblasts” value in the data set on proteasome is listed as “can enhance proteasome activities”. For the same compound, the “aminopeptidase hydrolytic activities, average fold change” value in data set [1] worked out at 1.6 fold. Further, in data set [2] (first half of the sequence, representative experiment), the “increase of production of 8-11aa peptides in p24-161-24m” value is listed as 2- to 5 fold. In addition, the “ratio of 8-11aa peptides of p24-161-24m produced in treated over DMSO treated cells” value in data set [2] (n = 4–10 donors) was “significantly increased”. In addition, the “number of significantly changed N- or C-terminal cleavage sites, p24-161-24mer” value in data set [2] (setting [6]) is given as 6. The “amount of fragments starting at V2, V15, V17 of p24-10-35m” value in data set [3] (setting [7]) is recorded as “reduced”. In data set [3] (second half of the sequence, representative experiment), the “difference in amount of 8-11aa peptides of p24-10-35m versus DMSO- or Panobinostat-treated extracts” value is recorded as “up to 5 times”. Moreover, in data set [4], the “score of peptide presentation efficiency (peptide equivalent over HIV infection rate) at 24 hours” value is given as “lowest” and the “equivalent peptide presented (TW10, ISW9, KF11) at 24 hpi” value is on record as “among the lowest”. The “efficiency of peptide presentation overtime” value in data set [4] (24 to 72 hpi) is listed as “increased”.
For `CC[C@H](C)[C@H](NC(=O)[C@@H](NC(=O)[C@H](CCC(=O)O)NC(=O)[C@@H]1CCCN1C(=O)[C@H](CO)NC(=O)[C@H](Cc1ccccc1)NC(=O)[C@H](C)NC(=O)[C@@H](N)CCCCN)C(C)C)C(=O)N1CCC[C@H]1C(=O)N[C@@H](CCSC)C(=O)N[C@@H](Cc1ccccc1)C(=O)O` [KF11], in data set [5], the “degradability in the cytosol of primary cells” value is recorded as “less degradable”.
As for `CCN(CC)C(=S)SSC(=S)N(CC)CC` [Disulfiram], the “proteasome activities in cell lines” value in the data set with proteasome (effect on NF-κB) is “inhibited proteasome activities”. For the same compound, the “HLA-B57 KF11 epitope production” value in data set [3] was “decreased”. Also, the QW11 epitope production entry in data set [3] (treated extracts over matched DMSO, n = 2–6 donors) is on record as “increased”. Besides, the “proportion of CD25+ and/or CD69+ primary CD4 T cells compared to DMSO-treated cells” value in the data set with primary CD4 T cells is “Neither HDACi nor disulfiram changed the proportion”.
Consider ISPRTLNAW [ISW9], for which the “degradability in the cytosol of primary cells” value in data set [5] is “among the most degradable”.
As for `Cc1[nH]c2ccccc2c1CCNCc1ccc(/C=C/C(=O)NO)cc1` [Panobinostat], in data set [1], the “aminopeptidase hydrolytic activities, average fold change” value amounted to 0.78 fold. Further, the “peptide production at each aa of p24-161-24mer” value in data set [2] (setting [6]) is reported as “decreased peptide production at most aa”. Besides, the “production of 8-11aa peptides throughout the p24-161-24m sequence” value in data set [2] (representative experiment) is reported as “reduced”. In data set [3], the “HLA-B57 KF11 epitope production” value was “unchanged”. Moreover, the “amount of fragments starting at V2, V15, V17 of p24-10-35m” value in data set [3] (setting [7]) is reported as “increased”. In addition, in data set [3] (extracts of CD4 T cells treated 48 h, 120-minute degradation, representative experiment, versus DMSO), the “reduction of fragments starting at H3 or N12 of p24-10-35m” value is 10 fold. For the same compound, the “HLA-B57 ISW9 epitope production” value in data set [3] (treated extracts over matched DMSO, n = 4–9 donors) was “increased”. Besides, in data set [4], the “KF11 and ISW9 peptide equivalent displayed by HIV-infected CD4 T cells” value was “reduction of peptide presentation”; the “score of peptide presentation efficiency (peptide equivalent over HIV infection rate) at 24 hours” value is “second highest”; the “equivalent peptide presented (TW10, ISW9, KF11) at 24 hpi” value was “highest KF11 and ISW9 peptide presentations”.
